# Data as given in patent US20140187784A1, “RADIOACTIVE QUINOLINONE DERIVATIVE AND PHARMACEUTICAL DRUG COMPRISING THE SAME” (Nihon Medi-Physics Co., Ltd., priority 2012, published 2014).
# Assays:
# [1] = molecular target: T1, human CYP11B1 (Homo sapiens, UniProt P15538); experiment: Inhibition of cortisol production in V79-B1 cells expressing human CYP11B1 (ELISA); assay type: cell-based; details: 11-deoxycortisol 100 nmol/L, 1 hour, unlabeled form, read-out: IC50 against cortisol production
# T1 construct: expressed in transfected cells; host or cells: Chinese hamster lung-derived fibroblast V79 cells (V79-B1)
# T1 sequence (P15538 25-503): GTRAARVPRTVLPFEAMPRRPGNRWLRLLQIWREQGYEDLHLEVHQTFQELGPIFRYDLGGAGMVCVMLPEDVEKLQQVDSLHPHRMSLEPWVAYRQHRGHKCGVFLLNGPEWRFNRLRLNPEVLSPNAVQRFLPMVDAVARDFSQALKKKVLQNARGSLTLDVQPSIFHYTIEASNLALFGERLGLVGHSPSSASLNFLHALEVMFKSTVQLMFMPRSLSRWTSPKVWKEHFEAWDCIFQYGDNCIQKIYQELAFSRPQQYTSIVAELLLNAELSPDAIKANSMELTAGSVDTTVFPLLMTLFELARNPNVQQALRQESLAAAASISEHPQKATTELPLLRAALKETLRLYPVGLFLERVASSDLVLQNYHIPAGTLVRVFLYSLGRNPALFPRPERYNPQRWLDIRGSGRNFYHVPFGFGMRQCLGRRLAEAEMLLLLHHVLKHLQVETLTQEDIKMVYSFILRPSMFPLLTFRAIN
# Protocol: (§1) Chinese hamster lung-derived fibroblast V79 cells (obtained from European Collection of Cell Cultures (ECACC) via DS Pharma Biomedical Co., Ltd.) were allowed to express human CYP11B2 and human CYP11B1 to prepare V79-B2 and V79-B1, respectively. V79-B2 or V79-B1 was inoculated to a microplate and cultured overnight. Then, corticosterone and 11-deoxycortisol were added at final concentrations of 100 nmol/L into the culture supernatants of V79-B2 and V79-B1, respectively. At the same time, iodometomidate (IMTO) or the unlabeled form of PAY15, PAY21, PAY27, or PAY54 synthesized in Example 2, 5, 8, or 12 was added at a final concentration of 10^−4 to 10^3 nmol/L into the culture supernatants. One hour later, the culture supernatant of V79-B1 was recovered, and the concentration of cortisol, which is a metabolite of CYP11B1, was measured by enzyme-linked immunosorbent assay (ELISA). Four hours later, the culture supernatant of V79-B2 was recovered, and the concentration of aldosterone, which is a metabolite of CYP11B2, was measured by ELISA. […] IC50 against cortisol production/IC50 against aldosterone production was calculated and used as a selectivity factor for CYP11B2.
# [2] = molecular target: T2, CYP11B2 (Homo sapiens, UniProt P19099); experiment: Inhibition of aldosterone production in V79-B2 cells expressing human CYP11B2 (ELISA); assay type: cell-based; design: expressed in transfected cells; host or cells: Chinese hamster lung-derived fibroblast V79 cells (V79-B2); details: for Selectivity factor: IC50 against cortisol production/IC50 against aldosterone production, selectivity factor for CYP11B2; for IC50: V79-B2 cells, corticosterone 100 nmol/L, 4 hours, unlabeled form, read-out: IC50 against aldosterone production; for selectivity factor compared with IMTO: selectivity factor for CYP11B2, Table 6
# T2 sequence (P19099 25-503): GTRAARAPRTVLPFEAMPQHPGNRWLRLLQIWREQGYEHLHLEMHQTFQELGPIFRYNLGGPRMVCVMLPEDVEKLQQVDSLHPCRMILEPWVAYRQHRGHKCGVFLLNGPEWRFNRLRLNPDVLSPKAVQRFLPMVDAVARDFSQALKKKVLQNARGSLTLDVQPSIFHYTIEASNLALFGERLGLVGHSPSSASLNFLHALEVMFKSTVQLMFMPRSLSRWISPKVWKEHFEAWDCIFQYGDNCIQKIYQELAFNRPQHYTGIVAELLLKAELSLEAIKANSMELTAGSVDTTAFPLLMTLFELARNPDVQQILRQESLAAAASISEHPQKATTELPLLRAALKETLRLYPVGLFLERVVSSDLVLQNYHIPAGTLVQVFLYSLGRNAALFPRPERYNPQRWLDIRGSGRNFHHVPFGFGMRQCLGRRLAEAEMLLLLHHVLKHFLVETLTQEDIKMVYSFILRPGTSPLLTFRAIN
# Protocol: as §1
# [3] = Pharmacokinetic and distribution experiment (radioactivity in blood and excised organs after tail vein injection); assay type: in vivo; details: ddy mice; for Adrenal gland/Blood ratio / Adrenal gland/Kidney ratio / Adrenal gland/Liver ratio / Radioactivity Distribution, Adrenal gland / Radioactivity Distribution, Blood / Radioactivity Distribution, Heart / Radioactivity Distribution, Kidney / Radioactivity Distribution, Large intestine / Radioactivity Distribution, Liver / Radioactivity Distribution, Lung / Radioactivity Distribution, Pancreas / Radioactivity Distribution, Small intestine / Radioactivity Distribution, Spleen / Radioactivity Distribution, Stomach / Radioactivity Distribution, Thyroid: tail vein injection, 18.5 kBq (0.5 μCi)
# Protocol: (§2) The HPLC fraction of [^125I]PAY15 obtained in Example 3 was concentrated and then diluted with saline. The resulting solution was used in administration. 100 μL of the solution (18.5 kBq (0.5 μCi)) was injected to the tail vein of each of five ddy mice (6 weeks old). Five minutes later, each mouse was decapitated, and blood was collected. Then, organs (adrenal gland, pancreas, heart, lung, stomach, small intestine, large intestine, liver, spleen, kidney, and thyroid gland) were excised. After measurement of their weights, the radioactivities of blood and each excised organ were measured. Also, the point in time when each mouse was decapitated was changed to 5, 15, 30, 60, and 120 minutes later to perform similar operation.
# The HPLC fraction of [^125I]PAY21 obtained in Example 6 was concentrated and then diluted with saline. The resulting solution was used in administration to perform the same operation as in Evaluation 1.
# as §2, with “[^18F]PAY27 obtained” for “The HPLC fraction of [^125I]PAY15 obtained”, “Example 10” for “Example 3”, “was” for “was concentrated and then”, “solution (14.8” for “solution (18.5”, “kBq (4” for “kBq (0.5”, “and thigh bone)” for “and thyroid gland)”
# as §2, with “[^18F]PAY54 obtained” for “The HPLC fraction of [^125I]PAY15 obtained”, “Example 13” for “Example 3”, “was” for “was concentrated and then”, “solution (14.8” for “solution (18.5”, “kBq (4” for “kBq (0.5”, “and thigh bone)” for “and thyroid gland)”
structure (smiles),measurement,setting,value
"O=C1CCc2cc(-c3cncc(OCCF)c3)cc3c2N1CCC3 [PAY27, 9-(5-(2-fluoroethyloxy)pyridin-3-yl)-1,2,6,7-tetrahydro-5H-pyrido[3,2,1-ij]quinolin-3-one]",IC50,[1],78.6 nM
same,Selectivity factor,[2],81.42
same,IC50,[2],0.97 nM
same,selectivity factor compared with IMTO,[2],higher than that of IMTO
"O=C1CCc2cc(-c3cncc(OCCF)c3)cc3c2N1CC3 [PAY54, 8-(5-(2-fluoroethyloxy)pyridin-3-yl)-1,2,5,6-tetrahydro-4H-pyrrolo[3,2,1-ij]quinolin-4-one]",IC50,[1],13.1 nM
same,Selectivity factor,[2],55.49
same,IC50,[2],0.24 nM
same,selectivity factor compared with IMTO,[2],higher than that of IMTO
"O=C1CCc2cc(-c3cncc([125I])c3)cc3c2N1CCC3 [[^125I]PAY15, 9-(5-[^125I]iodopyridin-3-yl)-1,2,6,7-tetrahydro-5H-pyrido[3,2,1-ij]quinolin-3-one]",radioactivity accumulation in the adrenal gland compared with blood and periadrenal tissues,[3]; at an early stage after administration,high radioactivity accumulation
same,Adrenal gland/Blood ratio,[3]; 5 min,1.74 ± 0.12
same,Adrenal gland/Kidney ratio,[3]; 5 min,1.42 ± 0.03
same,Adrenal gland/Liver ratio,[3]; 5 min,1.70 ± 0.23
same,"Radioactivity Distribution, Adrenal gland",[3]; 5 min,8.7 ± 1.7 % dose/g
same,"Radioactivity Distribution, Blood",[3]; 5 min,5.0 ± 1.2 % dose/g
same,"Radioactivity Distribution, Heart",[3]; 5 min,3.6 ± 0.8 % dose/g
same,"Radioactivity Distribution, Kidney",[3]; 5 min,6.1 ± 1.2 % dose/g
same,"Radioactivity Distribution, Large intestine",[3]; 5 min,1.9 ± 0.8 % dose/g
same,"Radioactivity Distribution, Liver",[3]; 5 min,5.1 ± 1.1 % dose/g
same,"Radioactivity Distribution, Lung",[3]; 5 min,7.4 ± 1.6 % dose/g
same,"Radioactivity Distribution, Pancreas",[3]; 5 min,4.0 ± 0.9 % dose/g
same,"Radioactivity Distribution, Small intestine",[3]; 5 min,3.7 ± 0.9 % dose/g
same,"Radioactivity Distribution, Spleen",[3]; 5 min,4.1 ± 0.8 % dose/g
same,"Radioactivity Distribution, Stomach",[3]; 5 min,3.5 ± 1.2 % dose/g
same,"Radioactivity Distribution, Thyroid",[3]; 5 min,71.6 ± 50.0 % dose/g
same,Adrenal gland/Blood ratio,[3]; 15 min,1.18 ± 0.15
same,Adrenal gland/Kidney ratio,[3]; 15 min,1.24 ± 0.17
same,Adrenal gland/Liver ratio,[3]; 15 min,1.81 ± 0.07
same,"Radioactivity Distribution, Adrenal gland",[3]; 15 min,7.3 ± 3.9 % dose/g
same,"Radioactivity Distribution, Blood",[3]; 15 min,4.9 ± 0.3 % dose/g
same,"Radioactivity Distribution, Heart",[3]; 15 min,2.6 ± 0.5 % dose/g
same,"Radioactivity Distribution, Kidney",[3]; 15 min,4.5 ± 0.4 % dose/g
same,"Radioactivity Distribution, Large intestine",[3]; 15 min,1.8 ± 0.2 % dose/g
same,"Radioactivity Distribution, Liver",[3]; 15 min,3.0 ± 0.3 % dose/g
same,"Radioactivity Distribution, Lung",[3]; 15 min,4.9 ± 0.3 % dose/g
same,"Radioactivity Distribution, Pancreas",[3]; 15 min,2.8 ± 0.1 % dose/g
same,"Radioactivity Distribution, Small intestine",[3]; 15 min,4.6 ± 0.9 % dose/g
same,"Radioactivity Distribution, Spleen",[3]; 15 min,3.2 ± 0.3 % dose/g
same,"Radioactivity Distribution, Stomach",[3]; 15 min,12.1 ± 2.0 % dose/g
same,"Radioactivity Distribution, Thyroid",[3]; 15 min,349.4 ± 115.9 % dose/g
same,Adrenal gland/Blood ratio,[3]; 30 min,0.74 ± 0.40
same,Adrenal gland/Kidney ratio,[3]; 30 min,0.75 ± 0.20
same,Adrenal gland/Liver ratio,[3]; 30 min,1.82 ± 0.53
same,"Radioactivity Distribution, Adrenal gland",[3]; 30 min,2.3 ± 1.2 % dose/g
same,"Radioactivity Distribution, Blood",[3]; 30 min,3.1 ± 0.3 % dose/g
same,"Radioactivity Distribution, Heart",[3]; 30 min,1.3 ± 0.1 % dose/g
same,"Radioactivity Distribution, Kidney",[3]; 30 min,3.5 ± 0.9 % dose/g
same,"Radioactivity Distribution, Large intestine",[3]; 30 min,1.6 ± 0.2 % dose/g
same,"Radioactivity Distribution, Liver",[3]; 30 min,1.5 ± 0.2 % dose/g
same,"Radioactivity Distribution, Lung",[3]; 30 min,3.6 ± 1.6 % dose/g
same,"Radioactivity Distribution, Pancreas",[3]; 30 min,1.7 ± 0.1 % dose/g
same,"Radioactivity Distribution, Small intestine",[3]; 30 min,4.0 ± 0.4 % dose/g
same,"Radioactivity Distribution, Spleen",[3]; 30 min,2.2 ± 0.3 % dose/g
same,"Radioactivity Distribution, Stomach",[3]; 30 min,25.0 ± 6.4 % dose/g
same,"Radioactivity Distribution, Thyroid",[3]; 30 min,486.5 ± 245.4 % dose/g
same,Adrenal gland/Blood ratio,[3]; 60 min,0.82 ± 0.16
same,Adrenal gland/Kidney ratio,[3]; 60 min,0.84 ± 0.21
same,Adrenal gland/Liver ratio,[3]; 60 min,1.90 ± 0.47
same,"Radioactivity Distribution, Adrenal gland",[3]; 60 min,1.7 ± 1.3 % dose/g
same,"Radioactivity Distribution, Blood",[3]; 60 min,2.9 ± 0.2 % dose/g
same,"Radioactivity Distribution, Heart",[3]; 60 min,1.0 ± 0.0 % dose/g
same,"Radioactivity Distribution, Kidney",[3]; 60 min,2.7 ± 0.6 % dose/g
same,"Radioactivity Distribution, Large intestine",[3]; 60 min,1.7 ± 0.5 % dose/g
same,"Radioactivity Distribution, Liver",[3]; 60 min,1.2 ± 0.1 % dose/g
same,"Radioactivity Distribution, Lung",[3]; 60 min,2.4 ± 0.1 % dose/g
same,"Radioactivity Distribution, Pancreas",[3]; 60 min,1.5 ± 0.1 % dose/g
same,"Radioactivity Distribution, Small intestine",[3]; 60 min,4.0 ± 0.4 % dose/g
same,"Radioactivity Distribution, Spleen",[3]; 60 min,1.6 ± 0.2 % dose/g
same,"Radioactivity Distribution, Stomach",[3]; 60 min,31.3 ± 11.2 % dose/g
same,"Radioactivity Distribution, Thyroid",[3]; 60 min,1298.8 ± 729.1 % dose/g
same,Adrenal gland/Blood ratio,[3]; 120 min,0.86 ± 0.46
same,Adrenal gland/Kidney ratio,[3]; 120 min,0.87 ± 0.42
same,Adrenal gland/Liver ratio,[3]; 120 min,0.73 ± 0.42
same,"Radioactivity Distribution, Adrenal gland",[3]; 120 min,2.1 ± 1.4 % dose/g
same,"Radioactivity Distribution, Blood",[3]; 120 min,2.3 ± 0.5 % dose/g
same,"Radioactivity Distribution, Heart",[3]; 120 min,0.8 ± 0.2 % dose/g
same,"Radioactivity Distribution, Kidney",[3]; 120 min,2.7 ± 1.6 % dose/g
same,"Radioactivity Distribution, Large intestine",[3]; 120 min,2.4 ± 1.0 % dose/g
same,"Radioactivity Distribution, Liver",[3]; 120 min,1.0 ± 0.2 % dose/g
same,"Radioactivity Distribution, Lung",[3]; 120 min,2.0 ± 0.4 % dose/g
same,"Radioactivity Distribution, Pancreas",[3]; 120 min,1.3 ± 0.3 % dose/g
same,"Radioactivity Distribution, Small intestine",[3]; 120 min,3.0 ± 0.6 % dose/g
same,"Radioactivity Distribution, Stomach",[3]; 120 min,27.4 ± 5.2 % dose/g
same,"Radioactivity Distribution, Thyroid",[3]; 120 min,1400.6 ± 695.3 % dose/g
